# According to patent publication US12259378B2, “Dynamic clamps and methods of use thereof” (priority 2018, dated 2025):
# “Also recorded” adds a separate entry of the source. Where two headings read alike, the source gives them in different places.
# Tests used:
# [1] = test system: patients with R1882Q mutation; conditions: human, in vivo
# From the text: (§1) All patients, or their parents or legal guardian in the case of minors or individuals with intellectual disability, gave written informed consent. The study was approved by the Human Research Ethics Committee of Austin Health, Melbourne.
# (§2) Clinical data was collated from the literature for previously reported individuals (N=14), with updated clinical information obtained in one patient. Individuals whose clinical data was not previously published (N=5), had their mutations identified through clinical testing. Detailed phone or clinical interviews with these parents were undertaken by paediatric epileptologists (KBH, MRC), home videos were reviewed and medical records from the treating neurologist obtained.
# [2] = test system: patients with R853Q mutation; conditions: human, in vivo
# From the text: as §1, §2
# [3] = test system: patients with R853Q mutation; conditions: human, in vivo; cited from earlier work
# [4] = test system: patients with R1882Q mutation; conditions: human, in vivo; cited from earlier work
# human Nav 1.2 channel = human Nav 1.2 channel (Homo sapiens, UniProt Q99250, R1882Q)
# Chain of human Nav 1.2 channel (Q99250 whole entry R1882Q, looked up): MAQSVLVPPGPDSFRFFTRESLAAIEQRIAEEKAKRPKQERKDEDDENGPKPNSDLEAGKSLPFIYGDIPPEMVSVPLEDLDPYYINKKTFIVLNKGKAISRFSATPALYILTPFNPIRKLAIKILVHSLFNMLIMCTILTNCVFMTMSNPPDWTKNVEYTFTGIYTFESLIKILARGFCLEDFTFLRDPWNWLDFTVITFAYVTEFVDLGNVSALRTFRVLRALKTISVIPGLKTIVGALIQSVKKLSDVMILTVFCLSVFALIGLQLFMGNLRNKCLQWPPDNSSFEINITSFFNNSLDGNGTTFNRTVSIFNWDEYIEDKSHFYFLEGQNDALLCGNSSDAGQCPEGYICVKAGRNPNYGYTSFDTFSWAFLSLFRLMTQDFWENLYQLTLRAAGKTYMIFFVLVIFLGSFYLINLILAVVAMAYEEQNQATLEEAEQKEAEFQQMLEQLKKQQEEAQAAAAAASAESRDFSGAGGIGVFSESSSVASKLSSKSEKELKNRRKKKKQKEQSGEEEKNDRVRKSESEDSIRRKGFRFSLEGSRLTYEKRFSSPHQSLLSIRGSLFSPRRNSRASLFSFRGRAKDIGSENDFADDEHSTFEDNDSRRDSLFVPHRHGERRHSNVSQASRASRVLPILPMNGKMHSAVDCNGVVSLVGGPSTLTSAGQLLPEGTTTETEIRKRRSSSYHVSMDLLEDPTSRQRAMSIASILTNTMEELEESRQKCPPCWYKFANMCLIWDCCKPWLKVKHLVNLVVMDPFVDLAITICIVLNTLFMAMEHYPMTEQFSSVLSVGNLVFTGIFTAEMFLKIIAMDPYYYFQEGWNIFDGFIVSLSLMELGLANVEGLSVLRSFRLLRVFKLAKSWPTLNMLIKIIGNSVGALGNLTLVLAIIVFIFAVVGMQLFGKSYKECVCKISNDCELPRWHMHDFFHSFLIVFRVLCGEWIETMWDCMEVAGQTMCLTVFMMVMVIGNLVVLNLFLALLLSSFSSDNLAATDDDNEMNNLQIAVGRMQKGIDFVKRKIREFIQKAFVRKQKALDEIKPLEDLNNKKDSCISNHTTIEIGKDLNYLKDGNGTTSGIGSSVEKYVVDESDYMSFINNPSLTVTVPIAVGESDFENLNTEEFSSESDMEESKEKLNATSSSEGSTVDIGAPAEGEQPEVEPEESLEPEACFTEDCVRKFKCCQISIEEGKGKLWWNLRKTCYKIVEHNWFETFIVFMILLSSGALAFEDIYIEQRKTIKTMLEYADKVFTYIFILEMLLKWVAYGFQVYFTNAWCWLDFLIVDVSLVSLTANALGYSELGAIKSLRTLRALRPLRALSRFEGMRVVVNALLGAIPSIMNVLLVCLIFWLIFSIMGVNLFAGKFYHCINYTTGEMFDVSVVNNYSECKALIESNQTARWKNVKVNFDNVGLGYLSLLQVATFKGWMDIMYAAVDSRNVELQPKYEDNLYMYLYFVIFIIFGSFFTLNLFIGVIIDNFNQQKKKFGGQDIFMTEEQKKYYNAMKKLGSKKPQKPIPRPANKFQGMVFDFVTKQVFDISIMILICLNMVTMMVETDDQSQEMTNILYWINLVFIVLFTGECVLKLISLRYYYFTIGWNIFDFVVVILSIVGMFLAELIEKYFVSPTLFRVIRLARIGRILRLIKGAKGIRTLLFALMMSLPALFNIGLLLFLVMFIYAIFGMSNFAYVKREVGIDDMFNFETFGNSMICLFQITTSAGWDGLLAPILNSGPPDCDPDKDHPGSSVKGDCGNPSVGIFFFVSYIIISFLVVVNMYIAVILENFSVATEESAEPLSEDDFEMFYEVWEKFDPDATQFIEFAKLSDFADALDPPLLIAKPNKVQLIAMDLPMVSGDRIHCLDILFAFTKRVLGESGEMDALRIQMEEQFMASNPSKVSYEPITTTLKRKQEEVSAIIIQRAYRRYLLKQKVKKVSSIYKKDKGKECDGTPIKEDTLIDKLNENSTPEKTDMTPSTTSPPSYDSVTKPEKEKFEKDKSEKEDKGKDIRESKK
compound,measurement,setting,value
"C=C(C)[C@@H]1CCC(C)=C[C@H]1c1c(O)cc(CCCCC)cc1O [CBD, cannabidiol]",Other AED response,[1],Benefit
"NC(=O)N1c2ccccc2C=Cc2ccccc21 [CBZ, carbamazepine]","Seizure control, summary over patients",[1],Seizures were improved
same,Other sodium channel blocker response,[2],benefit
"CN1C(=O)CC(=O)N(c2ccccc2)c2cc(Cl)ccc21 [CLB, clobazam]",Other AED response,[3],Benefit
"Nc1nnc(-c2cccc(Cl)c2Cl)c(N)n1 [LTG, lamotrigine]",Other sodium channel blocker response,[4],no effect
"NC(=O)N1c2ccccc2CC(=O)c2ccccc21 [OXC, oxcarbazepine]",Other sodium channel blocker response,[2],seizure control remained good
same,Other sodium channel blocker response,[4],no effect
"O=C1NC(=O)C(c2ccccc2)(c2ccccc2)N1 [PHT, phenytoin]",Adverse effect with phenytoin loads (movement disorder),[1],‘continuous thrashing’
same,PHT response,[1],Benefit
same,"Seizure control, summary over patients",[1],some showed marked improvement; also recorded: improved seizure control in two and no definite effect on seizures in three; also recorded: some patients with R1882Q mutations become seizure free; also recorded: not universal
same,PHT response,[2],No effect
same,PHT response,[4],No effect
same,PHT response,[3],No effect
"CCCCCc1cc(O)c2c(c1)OC(C)(C)[C@@H]1CCC(C)=C[C@@H]21 [THC, tetrahydrocannabinol]",Other AED response,[2],Benefit
"CC1(C)O[C@@H]2[C@@H](CO[C@@]3(COS(N)(=O)=O)OC(C)(C)O[C@@H]23)O1 [TPM, topiramate]",Other AED response,[3],Benefit
"C=CC(N)CCC(=O)O (stereo not shown) [VGB, vigabatrin]","Seizure control, summary over patients",[2],beneficial in one and exacerbated seizures in three
same,Other AED response,[3],Benefit
"CCCC(CCC)C(=O)O [VPA, valproic acid]",Other AED response,[1],Benefit
same,Other AED response,[3],Benefit
CC1OC(C)OC(C)O1 (stereo not shown) [paraldehyde],Other AED response,[2],Benefit
NC1=N[C@H](O)[C@H]2[C@H]3O[C@]4(O)O[C@@H]([C@@H](O)[C@@]2(N1)[C@@H]4O)[C@]3(O)CO [tetrodotoxin],Sensitivity of persistent INa to tetrodotoxin,human Nav 1.2 channel,sensitive
CCCCCCC(=O)OCC(COC(=O)CCCCCC)OC(=O)CCCCCC [triheptanoin],Other AED response,[1],Benefit
same,Improvement of movement disorder,[2],Improvement
same,Other AED response,[2],Benefit
L-Dopa/Carbidopa,Improvement of movement disorder,[2],Improvement
"adrenocorticotropic hormone (SYSMEHFRWGKPVGKKRRPVKVYPNGAEDESAEAFPLEF; Corticotropin; UniProt P01189 138-176, looked up) [ACTH]",Other AED response,[2],Benefit
same,"Seizure control, summary over patients",[2],beneficial in four patients
same,Other AED response,[3],Benefit
